Experiments:
[1] = tested on: SW620 cells; assay: SW620 growth with anticancer drugs, MTT assay; assay type: cell-based, human; details: for growth inhibitory effect of the drug alone at lower dose: Etoposide 1 μg/ml, Cisplatin 1 μg/ml, 5-FU 0.1 μg/ml, Doxorubicin 0.01 μg/ml; for SW620 cell sensitivity to the drug: drug alone
Method: For cell viability assay, cells were seeded in wells of 96-well plates for 2 days and then treated with different concentrations of mushroom extract fractions or purified verticillin A for 2 days. The cells were then incubated with MTT (3-(4,5-dimethylthiazol-2-yl)-2,5-diphenyltetrazolium bromide) using the MTT assay kit (ATCC, Manassas, Va.) according to the manufacturer's instructions.
Etoposie, Cisplatin, 5-FU and Doxorubicin are commonly used cancer drugs that suppress tumor cell growth through their cytotoxicity. High cytotoxicity is often associated with high dose of their drugs. Furthermore, tumor cells often develop resistance to these cytotoxic drugs. To determine whether Verticillin A can increase the efficacy of these drugs and overcome drug resistance, the effectiveness of Verticillin A combined with these 4 drugs in suppression of tumor cell growth was tested in vitro. SW620 cell sensitivity to these drugs was first measured. SW620 cells are resistant to Etoposide but sensitive to 5-FU. […] SW620 cells were next pretreated with Verticillin A, followed by treatment with Etoposide (1 μg/ml), Cisplatin (1 μg/ml), 5-FU ([…]) and Doxorubicin (0.01 μg/ml), respectively.

[2] = tested on: BNIP3, IRF8, Neurog1, p15ink4b, RUNX3; assay: Expression of genes with methylated promoters; assay type: cell-based, human; details: SW620, AzadC 0-1.0 μM
Method: To determine whether verticillin A inhibits DNA methylation in other gene promoters, 4 other genes (IRF8, Neurog1, p15ink4b, RUNX3) with known promoter DNA methylation in human colon carcinoma cells were selected. SW620 cells were treated with AzadC (0-1.0 μM) and verticillin A (0-50 nM), respectively, and analyzed for the expression of BNIP3 and these 4 genes.

[3] = tested on: SW620 cells; assay: Exogenous ceramide and TRAIL-mediated apoptosis; assay type: cell-based, human
Method: FIG. 8 is a bar graph showing cell death (%) of SW620 cells incubated with C16 ceramide for 2 h followed by treatment with TRAIL overnight. The tumor cells were then stained with PI and annex V and analyzed by flow cytometry. % apoptotic cells were calculated by the formula [% annexin V^+ cells of the TRAIL-treated cells-% annexin V^+ cells of untreated cells].
A-CDase catalyzes ceramide degradation to decrease ceramide level in the cells and overexpression of A-Cdase is often associated with apoptosis resistance in tumor cells (Elojeimy S, et al. Mol Ther 2007 15(7):1259-63; Liu X, et al. Front Biosci 2008 13:2293-8; Mao C, et al. Biochim Biophys Acta 2008 1781(9):424-34; Ogretmen B. FEBS Lett 2006 580(23):5467-76; Baran Y, et al. J Biol Chem 2007 282(15):10922-34). Inhibition of A-CDase activity is often associated with increased ceramide level and enhanced apoptosis sensitivity (Liu X, et al. Front Biosci 2008 13:2293-8; Ogretmen B. FEBS Lett 2006 580(23):5467-76; White-Gilbertson S, et al. Oncogene 2009 28(8):1132-41). Next, we examined the effect of exogenous ceramide on tumor cell sensitivity to TRAIL-mediated apoptosis. SW620 cells were incubated with different concentrations of C16 ceramide for 2 h and then treated with TRAIL.

[4] = tested on: Colon carcinoma (LS114N, T84, LS174T and SW620); assay: A-CDase inhibitor pre-treatment and TRAIL-induced apoptosis; assay type: cell-based; details: LCL85 pre-treatment prior to TRAIL
Method: A complementary approach was examined to determine the role of A-CDase in TRAIL resistance. Colon carcinoma (LS114N, T84, LS174T and SW620) were treated with A-CDase inhibitor LCL85 prior to TRAIL treatment and analyzed for apoptosis.

[5] = tested on: SW620 cells; assay: Apoptosis and TRAIL sensitization of SW620 cells (PI/annexin V flow cytometry); assay type: cell-based, human; details: SW620, agent alone
Method: Cells were seeded in wells of 96-well plates for 2 days and then treated with different concentrations of mushroom extract fractions or purified verticillin A for 2 days. The cells were stained with propidium iodide (PI) (Trevigen, Gaithersburg, Md.) or PI plus annexin V-Alex Fluor 647 (Biolegend, San Diego, Calif.) and analyzed by flow cytometry.
SW620 is a metastatic human colon carcinoma cell line that is resistant to TRAIL-induced apoptosis (Voelkel-Johnson C, et al. Mol Cancer Ther 2005 4(9):1320-7).

[6] = tested on: SW620 tumor xenograft; assay: SW620 tumor xenograft growth in athymic mice; assay type: in vivo; details: TRAIL single agent
Method: Athymic mice were subcutaneously inoculated with human hepatoma HepG2 and colon carcinoma SW620 cells, respectively. The tumor-bearing mice were randomized into experimental groups. The control mice were given saline. The treatment group was intravenously injected with verticillin A at the doses of 1 and 2 mg/kg body weight. Tumor size was measured in 2 diameter with micrometer caliper at the indicate times to permit calculation of tumor volume, V=(a×b^2)/2, where “a” is the length and “b” is the width in millimeters. At the end of the experiment, all the animals were sacrificed, The tumor inhibitory rates were calculated using the following formula: [(mean tumor volume of control nude mice−mean tumor volume of treated nude mice)/mean tumor volume of control nude mice]×100%.
The disclosed observations indicate that verticillin A can dramatically increase TRAIL-induced tumor cell apoptosis. To determine whether these in vitro observations can be extended to enhance TRAIL-mediated tumor suppression in vivo, SW620 cells were injected subcutaneously to athymic mice, verticillin A and TRAIL, either used as single agent or in combination, were then injected to the tumor-bearing mice. Tumor growth rate were measured in different time points. Verticillin A can inhibit tumor cell growth in vitro at high dose and sensitize tumor cells to TRAIL-induced apoptosis at a low dose. […] As expected, SW620 tumors are resistant to TRAIL (Voelkel-Johnson C, et al. Mol Cancer Ther 2005 4(9):1320-7).

Row | Molecule | growth inhibitory effect of the drug alone at lower dose [1] | SW620 cell sensitivity to the drug [1] | further results
1 | COc1cc([C@@H]2c3cc4c(cc3[C@@H](O[C@@H]3O[C@@H]5CO[C@@H](C)O[C@H]5[C@H](O)[C@H]3O)[C@H]3COC(=O)[C@H]23)OCO4)cc(OC)c1O [Etoposide] | minimal inhibitory effects | resistant | –
2 | COc1cccc2c1C(=O)c1c(O)c3c(c(O)c1C2=O)C[C@@](O)(C(=O)CO)C[C@@H]3O[C@H]1C[C@H](N)[C@H](O)[C@H](C)O1 [Doxorubicin] | minimal inhibitory effects | only sensitive to high doses | –
3 | Nc1ncn([C@H]2C[C@H](O)[C@@H](CO)O2)c(=O)n1 [AzadC, reference compound] | – | – | expression levels of BNIP3, IRF8, Neurog1, p15ink4b, RUNX3 [2]: dramatically increased
4 | CCCCCCCCCCCCC/C=C/[C@@H](O)[C@H](CO)NC(=O)CCCCCCCCCCCCCCC [C16 ceramide] | – | – | tumor cell sensitivity to TRAIL-mediated apoptosis ([3]; SW620, C16 ceramide 2 h then TRAIL): dramatically increased the tumor cell sensitivity to TRAIL-mediated apoptosis; apoptosis-inducing activity ([3]; SW620, C16 ceramide alone): exhibited apoptosis-inducing activity at a dose-dependent manner
5 | N.N.[Cl][Pt][Cl] [Cisplatin] | minimal inhibitory effects | only sensitive to high doses | –
6 | O=c1[nH]cc(F)c(=O)[nH]1 [5-FU] | minimal inhibitory effects | sensitive | –
7 | O=C(CCCCCCCCCCCCCCC[n+]1ccccc1)N[C@H](CO)[C@H](O)c1ccc([N+](=O)[O-])cc1.[Br-] [LCL85, (1R,2R)-2_N-[16-(1′-pyridinium)-hexadecanoylamino)-1-(4′-nitrophenyl)-1,3-propandiol bromide] | – | – | sensitivity of tumor cells to TRAIL-induced apoptosis [4]: significantly increased the sensitivity of tumor cells to TRAIL-induced apoptosis
8 | TRAIL: TNF-related apoptosis-inducing ligand; recombinant TRAIL protein expressed and purified from E. coli (protein, UniProt P50591 1-281, looked up) Tumor necrosis factor ligand …: MAMMEVQGGPSLGQTCVLIVIFTVLLQSLCVAVTYVYFTNELKQMQDKYSKSGIACFLKEDDSYWDPNDEESMNSPCWQVKWQLRQLVRKMILRTSEETISTVQEKQQNISPLVRERGPQRVAAHITGTRGRSNTLSSPNSKNEKALGRKINSWESSRSGHSFLSNLHLRNGELVIHEKGFYYIYSQTYFRFQEEIKENTKNDKQMVQYIYKYTSYPDPILLMKSARNSCWSKDAEYGLYSIYQGGIFELKENDRIFVSVTNEHLIDMDHEASFFGAFLVG | – | – | apoptosis induction, single agent [5]: no apoptosis induction activity; SW620 tumor response to TRAIL alone [6]: resistant
